Laboratory results: ChEMBL document CHEMBL1201862, “PubChem BioAssay data set” (2004)
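Tested at 5 concentrations; 48 h exposure; 96-well plates; endpoints linearly interpolated, else capped at highest concentration. GI50: concentration for 50% inhibition of growth.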 Activity calls are given as the source filed them. Cut-off read from the data, not from the text of the source: active = GI50 up to about 1.1 µM and inactive = higher.

How the values were obtained:
Assay in all cases: NCI anticancer screen, dose series, 48 h
SF-268 = tested on: SF-268
OVCAR-4 = tested on: OVCAR-4
SF-295 = tested on: SF-295
T47D = tested on: T47D
786-0 = tested on: 786-0
OVCAR-3 = tested on: OVCAR-3
SN12C = tested on: SN12C
PC-3 = tested on: PC-3
HOP-62 = tested on: HOP-62
A549 = tested on: A549
DU-145 = tested on: DU-145
EKVX = tested on: EKVX
IGROV-1 = tested on: IGROV-1
LOX IMVI = tested on: LOX IMVI
KM12 = tested on: KM12
SR = tested on: SR
M14 = tested on: M14
MDA-N = tested on: MDA-N
Hs-578T = tested on: Hs-578T
DMS-273 = tested on: DMS-273

Compound | GI50 (SF-268) | GI50 (OVCAR-4) | GI50 (SF-295) | GI50 (T47D) | GI50 (786-0) | GI50 (OVCAR-3) | GI50 (SN12C) | GI50 (PC-3) | GI50 (HOP-62) | GI50 (A549) | GI50 (DU-145) | GI50 (EKVX) | GI50 (IGROV-1) | GI50 (LOX IMVI) | GI50 (KM12) | GI50 (SR) | GI50 (M14) | GI50 (MDA-N) | GI50 (Hs-578T) | GI50 (DMS-273)
N#Cc1nnc2c3c(-c4ccc(Cl)cc4)c(C#N)c(O)nc3nn2c1N | 3.26 µM (inactive) | 14.9 µM (inactive) | 5.3 µM (inactive) | 1.17 µM (inactive) | 5.14 µM (inactive) | 3.27 µM (inactive) | 2.38 µM (inactive) | 1.45 µM (inactive) | 4.79 µM (inactive) | 21.1 µM (inactive) | 3.88 µM (inactive) | 12.9 µM (inactive) | 2.61 µM (inactive) | 2.85 µM (inactive) | 11.9 µM (inactive) | 2.14 µM (inactive) | 6.89 µM (inactive) | 3.61 µM (inactive) | 3.4 µM (inactive) | 
CCOC1NC(=O)c2ccccc21 (stereo unspecified) | > 100 µM (inactive) | > 100 µM (inactive) | > 100 µM (inactive) | > 100 µM (inactive) | > 100 µM (inactive) | > 100 µM (inactive) | > 100 µM (inactive) | > 100 µM (inactive) | > 100 µM (inactive) | > 100 µM (inactive) | > 100 µM (inactive) | > 100 µM (inactive) | > 100 µM (inactive) | > 100 µM (inactive) | > 100 µM (inactive) | > 100 µM (inactive) | > 100 µM (inactive) | > 100 µM (inactive) | > 100 µM (inactive) | 
CC1(C)C2CCC13C(=O)C1OC3(C2)C2C(=O)N(c3ccccc3)C(=O)C12 (stereo unspecified) | > 100 µM (inactive) | > 100 µM (inactive) | > 100 µM (inactive) |  | > 100 µM (inactive) | > 100 µM (inactive) | > 100 µM (inactive) |  | > 100 µM (inactive) | > 100 µM (inactive) |  | > 100 µM (inactive) | > 100 µM (inactive) | > 100 µM (inactive) | > 100 µM (inactive) |  | > 100 µM (inactive) |  |  | > 100 µM (inactive)
N=C(c1ccccc1)N1CCCCC1 | > 100 µM (inactive) | > 100 µM (inactive) | > 100 µM (inactive) |  | > 100 µM (inactive) |  | > 100 µM (inactive) |  | > 100 µM (inactive) | > 100 µM (inactive) |  | > 100 µM (inactive) |  | > 100 µM (inactive) | > 100 µM (inactive) | > 100 µM (inactive) | > 100 µM (inactive) |  |  | > 100 µM (inactive)
CC(C)(C)c1ccccc1NS(=O)(=O)c1ccccc1 |  | 62.4 µM (inactive) | 86.1 µM (inactive) |  | > 100 µM (inactive) | 71.4 µM (inactive) | 62.4 µM (inactive) |  | > 100 µM (inactive) | 59.8 µM (inactive) |  | > 100 µM (inactive) | > 100 µM (inactive) |  | 65 µM (inactive) |  | 96.2 µM (inactive) |  |  | > 100 µM (inactive)
C[C@]12CC[C@H]3[C@@H](CC=C4C[C@@H](N5CCCC5)CC[C@@]43C)[C@@H]1C[C@H](N1CCOCC1)[C@@H]2O | > 100 µM (inactive) | > 100 µM (inactive) | > 100 µM (inactive) | > 100 µM (inactive) | > 100 µM (inactive) | > 100 µM (inactive) | > 100 µM (inactive) | > 100 µM (inactive) | > 100 µM (inactive) | > 100 µM (inactive) | > 100 µM (inactive) | > 100 µM (inactive) | > 100 µM (inactive) | > 10 µM (inactive) | > 100 µM (inactive) | 23.4 µM (inactive) | > 10 µM (inactive) | > 100 µM (inactive) | > 100 µM (inactive) | 
CC(=O)OC1COC(n2c(-c3ccc(Cl)cc3)cc(-c3ccccc3)c(C#N)c2=S)C(OC(C)=O)C1OC(C)=O (stereo unspecified) | 9.44 µM (inactive) | 2.92 µM (inactive) | 14.7 µM (inactive) | 14.1 µM (inactive) | 12.5 µM (inactive) | 6.38 µM (inactive) | 9.25 µM (inactive) | 14.5 µM (inactive) | 9.23 µM (inactive) | 13.4 µM (inactive) | 13.9 µM (inactive) | 58.5 µM (inactive) | 18.2 µM (inactive) | 3.58 µM (inactive) | 14.7 µM (inactive) | 29.2 µM (inactive) | 17.2 µM (inactive) | 22.1 µM (inactive) | 0.552 µM (active) | 
COc1cc(Nc2cnc3ccc(N)cc3n2)cc(OC)c1OC | > 100 µM (inactive) | > 100 µM (inactive) | > 96.6 µM (inactive) |  | > 100 µM (inactive) | 41.3 µM (inactive) | > 100 µM (inactive) |  | 29.2 µM (inactive) | > 100 µM (inactive) |  | > 100 µM (inactive) | 80.4 µM (inactive) | 36.6 µM (inactive) | 39.4 µM (inactive) |  | > 100 µM (inactive) |  |  | > 85.3 µM (inactive)
CSc1ccccc1NC1=NCCO1 | > 100 µM (inactive) | > 100 µM (inactive) | > 100 µM (inactive) | > 100 µM (inactive) | > 100 µM (inactive) | > 100 µM (inactive) | > 100 µM (inactive) | > 100 µM (inactive) | > 100 µM (inactive) | > 100 µM (inactive) | > 100 µM (inactive) | > 100 µM (inactive) | > 100 µM (inactive) | > 100 µM (inactive) | > 100 µM (inactive) | > 100 µM (inactive) | > 100 µM (inactive) | > 100 µM (inactive) | > 100 µM (inactive) | 
N#CCCN(CCC#N)c1ccc(/C=C2\N=C(COc3ccc(Cl)cc3Cl)OC2=O)cc1 | > 100 µM (inactive) | > 100 µM (inactive) | > 100 µM (inactive) |  | > 100 µM (inactive) | > 100 µM (inactive) | > 100 µM (inactive) |  | > 100 µM (inactive) | > 100 µM (inactive) |  | > 100 µM (inactive) | > 100 µM (inactive) | > 100 µM (inactive) | > 100 µM (inactive) |  | > 100 µM (inactive) |  |  | > 100 µM (inactive)
COc1ccc(C2S/C(=C\c3cccc(O)c3)C(=O)N2NC(=O)Cc2ccccc2)cc1 (stereo unspecified) | > 100 µM (inactive) | > 100 µM (inactive) | > 100 µM (inactive) |  | > 100 µM (inactive) |  | > 100 µM (inactive) |  | > 100 µM (inactive) | > 100 µM (inactive) |  |  | > 100 µM (inactive) | > 100 µM (inactive) | > 100 µM (inactive) | > 100 µM (inactive) | > 100 µM (inactive) |  |  | > 100 µM (inactive)
COCCCNC(=O)C1C(=O)N(CCCOC)C(=O)/C1=N\N (stereo unspecified) | > 100 µM (inactive) | > 100 µM (inactive) | > 100 µM (inactive) |  | > 100 µM (inactive) | > 100 µM (inactive) | > 100 µM (inactive) |  | > 100 µM (inactive) | > 100 µM (inactive) |  | > 100 µM (inactive) |  |  | > 100 µM (inactive) |  | > 100 µM (inactive) |  |  | > 100 µM (inactive)
CN(C)c1nnnn1-c1c(N)n(C)c(=O)n(C)c1=O | > 100 µM (inactive) | > 100 µM (inactive) | > 100 µM (inactive) |  | > 100 µM (inactive) | > 100 µM (inactive) | > 100 µM (inactive) |  | > 100 µM (inactive) | > 100 µM (inactive) |  | > 100 µM (inactive) | > 100 µM (inactive) | > 100 µM (inactive) | > 100 µM (inactive) |  |  |  |  | > 100 µM (inactive)
C/C=C(/C)C(=O)O[C@H]1CCN2CC=C(COC(=O)[C@@](O)([C@H](C)OC)C(C)(C)O)[C@H]12 | > 100 µM (inactive) | > 100 µM (inactive) | > 100 µM (inactive) | > 100 µM (inactive) | > 100 µM (inactive) | > 100 µM (inactive) | > 100 µM (inactive) | > 100 µM (inactive) | > 100 µM (inactive) | > 100 µM (inactive) | > 100 µM (inactive) | > 100 µM (inactive) | > 100 µM (inactive) | > 100 µM (inactive) | > 100 µM (inactive) | > 100 µM (inactive) | > 100 µM (inactive) | > 100 µM (inactive) | > 100 µM (inactive) | 
CC1OC(OC2C(O[C@H]3CC[C@@]4(C)C(=CC[C@H]5[C@@H]6C[C@@H]7O[C@]8(CC[C@@H](C)CO8)[C@@H](C)[C@@H]7[C@@]6(C)CC[C@@H]54)C3)OC(CO)C(OC3OC(CO)C(O)C3O)C2O)C(O)C(O)C1O (stereo partly specified) | 0.841 µM (active) | 0.931 µM (active) | 0.745 µM (active) | 1.12 µM (active) | 0.673 µM (active) | 0.918 µM (active) | 0.571 µM (active) | 0.776 µM (active) | 0.897 µM (active) | 0.634 µM (active) | 0.984 µM (active) | 0.885 µM (active) | 0.847 µM (active) | 0.521 µM (active) | 0.912 µM (active) | 0.695 µM (active) | 0.745 µM (active) | 0.752 µM (active) | 0.805 µM (active) | 
COC(=O)[C@H](Cc1ccccc1)NC(=O)c1ccc(CNC(=O)/C=C/c2csc(-c3ccccc3)n2)cc1 | 7.6 µM (inactive) | 24 µM (inactive) | 7.28 µM (inactive) | 2.72 µM (inactive) | 4.88 µM (inactive) | 5.33 µM (inactive) | 8.91 µM (inactive) | 6.87 µM (inactive) | 15.3 µM (inactive) | 16.1 µM (inactive) | 7.03 µM (inactive) | 15.2 µM (inactive) | 3.46 µM (inactive) | 4.91 µM (inactive) | 7.87 µM (inactive) | 1.11 µM (active) | 1.84 µM (inactive) | 4.45 µM (inactive) | 3.21 µM (inactive) | 
O=C1c2c(c3c4ccccc4[nH]c3c3[nH]c4ccccc4c23)C(=O)N1Cc1ccccc1 | 3.01 µM (inactive) | 3.06 µM (inactive) | 3.9 µM (inactive) |  | 3.13 µM (inactive) | 2.81 µM (inactive) | 2.1 µM (inactive) |  | 3.95 µM (inactive) | 3.48 µM (inactive) |  | 5.93 µM (inactive) | 4.09 µM (inactive) | 2.44 µM (inactive) | 3.08 µM (inactive) |  | 3.31 µM (inactive) |  |  | 2.74 µM (inactive)
